According to US5814488A (priority 1993, dated 1998):
Converted amounts (≈) assume the structure as drawn. Like-named read-outs stand apart in the source and are kept apart here.

Legend:
[1] = comparison value for MCR, source not stated in block, cited from earlier work
S. aureus = assay: Comparison of MIC and MBC (Tables 5 and 6); format: cell-based
Description: (§1) […]. […] […]

Klebsiella pneumoniae = assay: Comparison of MIC and MBC (Tables 5 and 6); format: cell-based
Description: as §1

Escherichia coli = assay: Comparison of MIC and MBC (Tables 5 and 6); format: cell-based
Description: as §1

Pseudomonas sp. = assay: Comparison of MIC and MBC (Tables 5 and 6); format: cell-based; details: Table 6, Pseudomonas sp., 20 strains
Description: as §1

Shigella = assay: Comparison of MIC and MBC (Tables 5 and 6); format: cell-based; details: Table 6, 10 strains
Description: as §1

SMILES | dosage of general safety ([1]; 129600 min) | dosage showing apparent intoxication [1] | MBC (S. aureus; Staphylococcus aureus, read-out: MBC90) | MBC range (S. aureus; Table 6, S. aureus, 31 strains, in µg/mL (unit assumed)) | MBC (Klebsiella pneumoniae; read-out: MBC90) | MBC (Klebsiella pneumoniae; read-out: MBC range) | MBC (Escherichia coli; read-out: MBC90) | MBC (Escherichia coli; read-out: MBC range) | MBC (Pseudomonas sp.; read-out: MBC90) | MBC (Pseudomonas sp.; read-out: MBC range) | MBC (Shigella; read-out: MBC90) | MBC (Shigella; read-out: MBC range)
CNC[C@@H]1CC[C@@H](N)[C@@H](O[C@H]2[C@H](O)[C@@H](O[C@H]3OC[C@](C)(O)[C@H](NC)[C@H]3O)[C@H](N)C[C@@H]2N)O1 [MCR, Micronomicin] | 25 MKD | 63 MKD | – | – | – | – | – | – | – | – | – | –
NC[C@H]1O[C@H](O[C@H]2[C@H](O)[C@@H](O[C@H]3O[C@H](CO)[C@@H](O)[C@H](N)[C@H]3O)[C@H](N)C[C@@H]2N)[C@H](O)[C@@H](O)[C@@H]1O [Kanamicin, Kanamycin] | – | – | 64 µg/mL (≈ 132 µM) | 0.125-128 | 4 µg/mL (≈ 8.26 µM) | 0.25 to 4 µg/mL (≈ 0.516 to 8.26 µM) | 8 µg/mL (≈ 16.5 µM) | 0.5 to 128 µg/mL (≈ 1.03 to 264 µM) | 128 µg/mL (≈ 264 µM) | 2 to 256 µg/mL (≈ 4.13 to 528 µM) | 2 µg/mL (≈ 4.13 µM) | 0.5 to 4 µg/mL (≈ 1.03 to 8.26 µM)
